US8853207B2 (Development Center for Biotechnology, priority 2012, dated 2014)
Structures can show the parent of a compound that is named as a salt.

Tests used:
Assay type in all cases: biochemical
[1] = molecular target: C-kit kinase (recombinant N-terminal 6×His-tagged C-kit kinase domain) (Homo sapiens (Human), UniProt P10721); assay: C-kit kinase assay ([33P] incorporation into substrate); settings: 100 μM ATP, 30° C., 30 minutes
Procedure: Inhibition of C-kit kinase activity by compounds disclosed herein was quantified by measuring the amount of [^33P] incorporated into the substrate in the presence of a test compound. Briefly, a reaction mixture of 25 μL final volume containing 5 ng of C-kit kinase (obtained by purifying recombinant N-terminal 6×His-tagged C-kit kinase domain construct expressed from baculovirus), 5 μg of the substrate [Poly (Glu-Tyr, […], Sigma], kinase reaction buffer (8 mM MOPS/NaOH pH7.0, 0.2 mM EDTA, 10 mM MnCl2, 0.5% glycerol, 0.001% Brij-35, 0.01%, 2-mercaptoethanol, 0.1 mg/ml BSA, 100 μM ATP, 0.1 μCi per well [^33P]-γ-ATP (2,500-3,000 Ci/mmol)), and a test compound (diluted from 9 μM to the desired final concentration by 4% DMSO) or DMSO (as the control) was incubated at 30° C. for 30 minutes. The reaction was stopped by adding 5 μL of 3% phosphoric acid solution. The resultant solution (30 μL) was later harvested by a UniFilter Plate GF/B (PerkinElmer) followed by adding 30 μL of the scintillation cocktail (MicroScint 20, PerkinElmer) to the well. The radioactivity retained on the filter membrane was measured by a luminescence counter (PerkinElmer). The results were analyzed by using linear regression software (GraphPad Prism 4; GraphPad Software Inc.).

[2] = molecular target: PDGFR-β kinase (recombinant N-terminal 6×His-tagged PDGFR-β kinase domain) (Homo sapiens (Human), UniProt P09619); assay: PDGFR-β kinase assay ([33P] incorporation into substrate); settings: 30 nM ATP, 30° C., 30 minutes; read-out: IC50 (nM) PDGFRβ
Procedure: (§1) Inhibition of PDGFR-β kinase activity by compounds disclosed herein was quantified by measuring the amount of [^33P] incorporated into the substrate in the presence of a test compound. Briefly, a reaction mixture of 25 μL final volume containing 55 ng of PDGFR-β kinase (obtained by purifying recombinant N-terminal 6×His-tagged PDGFR-β kinase domain construct expressed by baculovirus), 2.5 μg of the substrate [Poly (Glu-Tyr, 4:1), Sigma], kinase reaction buffer (20 mM MOPS pH 7.0, 1 mM EDTA, 5% glycerol, 0.01% Brij-35, 0.1% β-mercaptoethanol, 1 mg/mL BSA, 2 mM MnCl2, 30 nM ATP, 0.1 μCi per well [^33P]-γ-ATP (2,500-3,000 Ci/mmol)), and a test compound (diluted from 9 μM to the desired final concentration by 4% DMSO) or DMSO (as the control) was incubated at 30° C. for 30 minutes. The reaction was stopped by adding 5 μL of 3% phosphoric acid solution. The resultant solution (30 μL) was later harvested by a UniFilter Plate GF/B (PerkinElmer) followed by adding 30 μL of the scintillation cocktail (MicroScint 20, PerkinElmer) to the well. The radioactivity retained on the filter membrane was measured by a luminescence counter (PerkinElmer). The results were analyzed by using linear regression software (GraphPad Prism 4; GraphPad Software Inc.).

[3] = molecular target: FLT3 kinase (FLT3 kinase domain alone, Upstate) (Homo sapiens (Human), UniProt P36888); assay: FLT3 kinase assay ([33P] incorporation into substrate); settings: 100 μM ATP, 30° C., 30 minutes; read-out: IC50 against FLT3
Procedure: as §1, with “FLT3” for “PDGFR-β”, “5” for “55”, “(FLT3” for “(obtained by purifying recombinant N-terminal 6×His-tagged PDGFR-β”, “alone, Upstate), 5” for “construct expressed by baculovirus), 2.5”, “[(Poly” for “[Poly”, “100 μM” for “2 mM MnCl2, 30 nM”

Chain of PDGFR-β kinase (recombinant N-terminal 6×His-tagged PDGFR-β kinase domain) (P09619 600-962): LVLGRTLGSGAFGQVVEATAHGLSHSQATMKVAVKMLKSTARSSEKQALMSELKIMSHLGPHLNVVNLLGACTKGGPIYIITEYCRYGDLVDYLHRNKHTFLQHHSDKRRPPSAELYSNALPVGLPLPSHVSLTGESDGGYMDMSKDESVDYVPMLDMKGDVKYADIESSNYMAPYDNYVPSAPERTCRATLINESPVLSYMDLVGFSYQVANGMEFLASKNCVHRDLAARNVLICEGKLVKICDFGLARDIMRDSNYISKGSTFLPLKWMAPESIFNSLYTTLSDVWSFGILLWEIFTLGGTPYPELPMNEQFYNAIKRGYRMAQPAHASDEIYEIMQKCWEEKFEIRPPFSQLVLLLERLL
Chain of FLT3 kinase (FLT3 kinase domain alone, Upstate) (P36888 610-943): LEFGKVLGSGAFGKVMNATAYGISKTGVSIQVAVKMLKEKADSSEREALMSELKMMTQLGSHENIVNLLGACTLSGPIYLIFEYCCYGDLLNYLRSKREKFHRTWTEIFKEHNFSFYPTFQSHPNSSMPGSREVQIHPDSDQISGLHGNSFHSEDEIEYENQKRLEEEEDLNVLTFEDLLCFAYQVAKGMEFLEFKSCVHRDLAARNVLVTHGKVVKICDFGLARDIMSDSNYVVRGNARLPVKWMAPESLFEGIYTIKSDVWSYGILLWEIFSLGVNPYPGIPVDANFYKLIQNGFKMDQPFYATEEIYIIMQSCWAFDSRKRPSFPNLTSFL
Chain of C-kit kinase (recombinant N-terminal 6×His-tagged C-kit kinase domain) (P10721 589-937): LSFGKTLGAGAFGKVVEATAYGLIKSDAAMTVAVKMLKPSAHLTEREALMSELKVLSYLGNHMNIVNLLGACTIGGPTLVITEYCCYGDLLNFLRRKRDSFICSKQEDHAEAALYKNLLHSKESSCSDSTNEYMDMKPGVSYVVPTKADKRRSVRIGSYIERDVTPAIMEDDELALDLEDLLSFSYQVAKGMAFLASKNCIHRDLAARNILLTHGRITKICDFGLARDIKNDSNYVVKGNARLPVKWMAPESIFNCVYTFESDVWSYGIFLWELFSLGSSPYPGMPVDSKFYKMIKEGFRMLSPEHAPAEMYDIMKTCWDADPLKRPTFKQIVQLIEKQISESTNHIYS

Compound	IC50 [1] [nM]	IC50 [2] [nM]	IC50 [3] [nM]
Nc1ccc(-c2n[nH]c3c2Cc2sccc2-3)cc1 [Example-2, 4-(4,7-Dihydro-1-thia-4,5-diaza-cyclopenta[a]pentalen-6-yl)-phenylamine hydrochloride]	201	859	< 100
Oc1cccc(Nc2ccc(-c3n[nH]c4c3Cc3sccc3-4)cc2)c1 [Example-10, 3-[4-(4,7-Dihydro-1-thia-4,5-diaza-cyclopenta[a]pentalen-6-yl)-phenylamino]-phenol]	139	118	< 100
COc1ccc(-c2n[nH]c3c2Cc2sc(-c4ccncc4)cc2-3)cc1 [Example-69, 6-(4-Methoxy-phenyl)-2-pyridin-4-yl-4,7-dihydro-1-thia-4,5-diaza-cyclopenta[a]pentalene]	22	316	< 100
COc1ccc(-c2n[nH]c3c2Cc2sc(-c4cccnc4)cc2-3)cc1 [Example-70, 6-(4-Methoxy-phenyl)-2-pyridin-3-yl-4,7-dihydro-1-thia-4,5-diaza-cyclopenta[a]pentalene]	24.8	479	< 100
COc1ccc(-c2n[nH]c3c2Cc2sc(-c4ccc(N)nc4)cc2-3)cc1 [Example-78, 5-[6-(4-Methoxy-phenyl)-4,7-dihydro-1-thia-4,5-diaza-cyclopenta[a]pentalen-2-yl]-pyridin-2-ylamine]	27.5	363	< 100
COc1ccc(-c2n[nH]c3c2Cc2sc(-c4ccc(NC(=O)CN5CCCC5)nc4)cc2-3)cc1 [Example-82, N-{5-[6-(4-Methoxy-phenyl)-4,7-dihydro-1-thia-4,5-diaza-cyclopenta[a]pentalen-2-yl]-pyridin-2-yl}-2-pyrrolidin-1-yl-acetamide]	12.2	176	< 100
CN1CCN(c2ccc(-c3n[nH]c4c3Cc3sc(-c5ccc(N)nc5)cc3-4)cc2)CC1 [Example-89, 5-{6-[4-(4-Methyl-piperazin-1-yl)-phenyl]-4,7-dihydro-1-thia-4,5-diaza-cyclopenta[a]pentalen-2-yl}-pyridin-2-ylamine hydrochloride]	–	–	< 100
COc1ccc(-c2n[nH]c3c2Cc2sc(-c4cncc(N)c4)cc2-3)cc1 [Example-91, 5-[6-(4-Methoxy-phenyl)-4,7-dihydro-1-thia-4,5-diaza-cyclopenta[a]pentalen-2-yl]-pyridin-3-ylamine hydrochloride]	–	–	< 100
Nc1ccc(-c2cc3c(s2)Cc2c(-c4ccc(O)cc4)n[nH]c2-3)cn1 [Example-92, 4-[2-(6-Amino-pyridin-3-yl)-4,7-dihydro-1-thia-4,5-diaza-cyclopenta[a]pentalen-6-yl]-phenol]	–	–	< 100
Oc1ccc(-c2n[nH]c3c2Cc2sccc2-3)cc1 [Example-93, 4-(4,7-Dihydro-1-thia-4,5-diaza-cyclopenta[a]pentalen-6-yl)-phenol]	–	–	< 100
